Experimental data: ChEMBL document CHEMBL4138122, “Azaphenothiazines - promising phenothiazine derivatives. An insight into nomenclature, synthesis, structure elucidation and biological properties” (Eur J Med Chem, 2017)
≈ marks a conversion by molar mass, not a printed value.

Key:
C32 = assay: Cytotoxicity against human C32 cells; format: functional, cell-based
T47D = assay: Cytotoxicity against human T47D cells; format: functional, cell-based
SNB-19 = assay: Cytotoxicity against human SNB19 cells; format: functional, cell-based
[1] = target: Intercellular adhesion molecule 1 (Homo sapiens, UniProt P05362); assay: Inhibition of ICAM1 (unknown origin)
MDA-MB-231 = assay: Cytotoxicity against human MDA-MB-231 cells; format: functional, cell-based
Liver = assay: Antioxidant activity in rat liver microsomal membranes assessed as inhibition of Fe(2+)/ascorbate-induced lipid peroxidation; format: functional, microsomes, microsome
Escherichia coli = assay: Antibacterial activity against Escherichia coli; format: functional; settings: for MIC: Escherichia coli
Bacillus cereus = assay: Antibacterial activity against Bacillus cereus; format: functional, organism-based
PBMC = assay: Cytotoxicity in human PBMCs assessed as reduction in cel viability at 50 ug/ml; format: cell-based
[2] = Displacement of [3H]-diazepam from benzodiazepine receptor in rat brain membranes after 30 mins; format: cell membranes, Membrane
MCF7 = assay: Cytotoxicity against human MCF7 cells; format: functional, cell-based
Rattus norvegicus = assay: Analgesic activity in Sprague-Dawley rat assessed as reduction in phenylbenzoquinone-induced number of writhes at 20 mg/kg, sc incubated for 60 mins; format: functional; set-up: scale not given: the % may be the effect or the level left
[3] = Inhibition of LTB4 formation in rat polymorphonuclear leukocytes preincubated for 2 mins followed by A-23187 addition after 4 mins; format: functional, cell-based
Staphylococcus aureus = assay: Antibacterial activity against Staphylococcus aureus; format: functional
Mus musculus = assay: Anti-inflammatory activity in IL1-induced paw inflammation Balb/c mouse model assessed as inhibition of neutrophil migration at 10 mg/kg, po, pretreated for 30 mins followed by IL1 challenge measured after 2 hrs by spectrophotometric method; format: functional
Bacillus subtilis = assay: Antibacterial activity against Bacillus subtilis; format: functional

Intercellular adhesion molecule 1, sequence (P05362 whole entry): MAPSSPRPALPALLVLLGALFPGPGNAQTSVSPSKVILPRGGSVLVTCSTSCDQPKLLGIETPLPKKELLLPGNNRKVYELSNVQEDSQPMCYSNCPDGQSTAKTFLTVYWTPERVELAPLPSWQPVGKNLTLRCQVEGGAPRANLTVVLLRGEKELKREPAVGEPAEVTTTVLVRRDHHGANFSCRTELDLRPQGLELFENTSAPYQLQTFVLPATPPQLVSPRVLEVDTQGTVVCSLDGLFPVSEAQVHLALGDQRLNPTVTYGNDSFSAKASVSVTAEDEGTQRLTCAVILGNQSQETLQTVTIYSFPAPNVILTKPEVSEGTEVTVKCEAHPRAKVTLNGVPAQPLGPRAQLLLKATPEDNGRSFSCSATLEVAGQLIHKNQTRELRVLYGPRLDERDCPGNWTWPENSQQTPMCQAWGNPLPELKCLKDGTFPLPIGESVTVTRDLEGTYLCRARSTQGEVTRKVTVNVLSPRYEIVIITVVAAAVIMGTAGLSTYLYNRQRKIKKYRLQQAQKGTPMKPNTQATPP

CCN(CC)CCCN1c2ccc3ccccc3c2Sc2cc3ccccc3nc21
IC50 (C32): 0.8 µg/mL (≈ 1.93 µM) | IC50 (T47D): 5.9 µg/mL (≈ 14.3 µM) | IC50 (SNB-19): 0.98 µg/mL (≈ 2.37 µM)

CC(=O)N1CCN(Cc2ccc3c(c2)Nc2nccnc2S3)CC1
IC50 [1]: 270 to 1400 nM

c1cnc2c(n1)Nc1cc(CN3CCCCCC3)ccc1S2
IC50 [1]: 270 to 1400 nM

COc1ccc2c(c1)Sc1c[n+](C)c3ccccc3c1N2.[Cl-]
IC50 (C32): 0.5 to 7.5 µg/mL | IC50 (MDA-MB-231): 0.5 to 12 µg/mL | IC50 (SNB-19): 0.7 to 11.5 µg/mL

C[n+]1cc2c(c3ccccc31)Nc1c(O)cc(-c3ccccc3)cc1S2.[Cl-]
IC50 (C32): 0.5 to 7.5 µg/mL | IC50 (MDA-MB-231): 0.5 to 12 µg/mL | IC50 (SNB-19): 0.7 to 11.5 µg/mL

NS(=O)(=O)N1CCN(Cc2ccc3c(c2)Nc2nccnc2S3)CC1
IC50 [1]: 270 to 1400 nM

c1ccc2nc3c(cc2c1)Sc1c(ccc2ncccc12)N3
IC50 (Liver): 16000 nM

O=C(O)c1ccc(C2CCN(Cc3ccc4c(c3)Nc3nccnc3S4)CC2)cc1
IC50 [1]: 420 to 1000 nM

CN(C)CCCOc1ccc2c(c1)Nc1c(c[n+](C)c3ccccc13)S2.[Cl-]
IC50 (C32): ≤ 3 µg/mL | IC50 (T47D): ≤ 3 µg/mL | IC50 (MDA-MB-231): ≤ 3 µg/mL | IC50 (SNB-19): ≤ 3 µg/mL

c1cnc2c(n1)Nc1cc(CN3CCCCCCC3)ccc1S2
IC50 [1]: 270 to 1400 nM

COc1ccc2c(n1)Sc1c3c(c4ccccc4c1=N2)=Nc1c(N)ncnc1O3
MIC (Escherichia coli): 87.1 to 97.1 µg/mL (≈ 218 to 242 µM) | MIC (Bacillus cereus): 77.1 µg/mL (≈ 193 µM)

CC(=O)NC1CCN(Cc2ccc3c(c2)Nc2nccnc2S3)CC1
IC50 [1]: 270 to 1400 nM

C(#CCN1c2cnccc2Sc2cccnc21)CN1CCN(c2ccccc2)CC1
IC50 (C32): 26.1 to 27.5 µg/mL (≈ 63.1 to 66.5 µM) | IC50 (T47D): 45.8 µg/mL (≈ 111 µM) | IC50 (SNB-19): 33.1 µg/mL (≈ 80 µM) | Activity (PBMC): <= 22%

CCCCOc1ccc2c(c1)Nc1c(c[n+](C)c3ccccc13)S2.[Cl-]
IC50 (C32): 0.5 to 7.5 µg/mL | IC50 (MDA-MB-231): 0.5 to 12 µg/mL | IC50 (SNB-19): 0.7 to 11.5 µg/mL

CCN(C)CC#CCN1c2ccncc2Sc2ccncc21
IC50 (C32): 24.8 to 29.2 µg/mL (≈ 79.9 to 94.1 µM)

C/C(=C\CC1CCN(Cc2ccc3c(c2)Nc2nccnc2S3)CC1)C(=O)O
IC50 [1]: 420 nM

CN1c2ccccc2Sc2cnc(O)c(C#N)c21
IC50 [2]: 310 to 910 nM

CN1CCN(CC#CCN2c3ccncc3Sc3ccncc32)CC1
IC50 (C32): 24.8 to 29.2 µg/mL (≈ 70.6 to 83.1 µM) | IC50 (T47D): 9.6 µg/mL (≈ 27.3 µM) | IC50 (SNB-19): 21.2 µg/mL (≈ 60.3 µM)

C[n+]1cc2c(c3ccccc31)Nc1cc(OCCN3CCOCC3)ccc1S2.[Cl-]
IC50 (C32): ≤ 3 µg/mL | IC50 (T47D): ≤ 3 µg/mL | IC50 (MDA-MB-231): ≤ 3 µg/mL | IC50 (SNB-19): ≤ 3 µg/mL

CN1CCCCC1CCN1c2ccncc2Sc2ncccc21 (stereo not drawn)
IC50 (MCF7): 28.4 to 32.9 µg/mL (≈ 87 to 101 µM)

O=S(=O)(NC1CCN(Cc2ccc3c(c2)Nc2nccnc2S3)CC1)N1CCCCC1
IC50 [1]: 270 to 1400 nM

O=C(O)CC1CC2CCC(C1)N(Cc1ccc3c(c1)Nc1nccnc1S3)C2 (stereo not drawn)
IC50 [1]: 420 to 1000 nM

N#Cc1c(O)ncc2c1Nc1ccc(Cl)cc1S2
IC50 [2]: 310 to 910 nM

c1cc2c(cn1)Sc1ccncc1N2CCN1CCCC1
IC50 (Liver): 125000 nM

CCN(C)CC#CCN1c2cnccc2Sc2cccnc21
IC50 (C32): 26.1 to 27.5 µg/mL (≈ 84.1 to 88.6 µM) | IC50 (T47D): 26.1 to 27.5 µg/mL (≈ 84.1 to 88.6 µM) | IC50 (SNB-19): 26.1 to 27.5 µg/mL (≈ 84.1 to 88.6 µM) | Activity (PBMC): <= 22%

N#Cc1c2c(c[nH]c1=O)Sc1ccc([N+](=O)[O-])cc1N2
IC50 [2]: 310 to 910 nM

O=C(O)C(=O)O.c1ccc2c(c1)Sc1cnccc1N2CCCN1CCCCC1
Activity (Rattus norvegicus): 59 - 86%

COc1ccc2c(c1)Sc1nccnc1N2
IC50 [3]: 0.05 to 1 µg/mL (≈ 0.216 to 4.32 µM)

Cn1c(=O)c2c(c3ccccc31)Nc1ccccc1S2
MIC (Staphylococcus aureus): >=200 ug

CN1CCC2=C(C1)Sc1ccccc1N2CCCN1CCOCC1
Activity (Rattus norvegicus): 93%

O=c1[nH]c2ccccc2c2c1Sc1ccccc1N2
MIC (Staphylococcus aureus): >=200 ug

CSc1ccc2c(c1)Sc1cnc3ccccc3c1N2Cc1ccccc1
IC50 (MCF7): 8.71 µg/mL (≈ 22.5 µM) | IC50 (MDA-MB-231): 7.59 µg/mL (≈ 19.6 µM)

C[n+]1cc2c(c3ccccc31)Nc1ccc(N3CCCCC3)cc1S2.[Cl-]
IC50 (C32): 0.5 to 7.5 µg/mL | IC50 (MDA-MB-231): 0.5 to 12 µg/mL | IC50 (SNB-19): 0.7 to 11.5 µg/mL

NC(=O)C1CCCN(Cc2ccc3c(c2)Nc2nccnc2S3)C1 (stereo not drawn)
IC50 [1]: 270 to 1400 nM

O=C(O)CCC1CCN(Cc2ccc3c(c2)Nc2nccnc2S3)CC1
IC50 [1]: 470 nM

c1cnc2c(n1)Nc1cc(CN3CCCCC3)ccc1S2
IC50 [1]: 270 to 1400 nM

O=C(O)C(=O)O.c1ccc2c(c1)Sc1cnccc1N2CCCN1CCOCC1
Activity (Rattus norvegicus): 59 - 86%

Cc1ncc2c(n1)N=c1c(c3c(c4ccccc14)=Nc1cc([N+](=O)[O-])ccc1O3)S2
MIC (Escherichia coli): 87.1 to 97.1 µg/mL (≈ 211 to 235 µM) | MIC (Bacillus cereus): 87.1 µg/mL (≈ 211 µM)

CN(C)S(=O)(=O)N1CCN(Cc2ccc3c(c2)Nc2nccnc2S3)CC1
IC50 [1]: 270 to 1400 nM

CS(=O)(=O)N1CCN(Cc2ccc3c(c2)Nc2nccnc2S3)CC1
inhibition in vivo at 10 mg/kg (Mus musculus): 53.4% | IC50 [1]: 270 to 1400 nM

C=CCN1c2ccncc2Sc2ncccc21
IC50 (MCF7): 28.4 to 32.9 µg/mL (≈ 118 to 136 µM)

CN1CCCCC1CCN1c2ccc(F)cc2Sc2cnc3ccccc3c21 (stereo not drawn)
IC50 (MCF7): 5.92 to 6.96 µg/mL (≈ 15 to 17.7 µM) | IC50 (MDA-MB-231): 5.92 to 6.96 µg/mL (≈ 15 to 17.7 µM)

CN(C)CCCN1c2ccc(F)cc2Sc2cnc3ccccc3c21
IC50 (MCF7): 7.91 µg/mL (≈ 22.4 µM) | IC50 (MDA-MB-231): 7.43 µg/mL (≈ 21 µM)

C(#CCN1c2ccncc2Sc2ccncc21)CN1CCCCC1
IC50 (C32): 24.8 to 29.2 µg/mL (≈ 73.7 to 86.8 µM)

O=[N+]([O-])c1cnc2c(c1)Sc1cccc(Cl)c1N2
inhibition zone (IZ) (Escherichia coli): 7 - 12 mm | inhibition zone (IZ) (Staphylococcus aureus): 8 - 15 mm | inhibition zone (IZ) (Bacillus subtilis): 12 mm

c1ccc2nc3c(cc2c1)Sc1ccc2ccccc2c1N3
IC50 (Liver): 2 µg/mL
